Columns and labels:
Cu(II)–Aβ40/Aβ42 [1] = experiment: Aβ aggregation inhibition/disaggregation experiments (gel/western blot, TEM), Cu(II); assay type: biochemical; conditions: Aβ 25 μM, compound 50 μM, 37 °C, 24 h; gel/western blot and TEM
Description: The ability of 1–4 to control the aggregation of both metal-free Aβ and metal-Aβ in inhibition (Fig. 2) and disaggregation experiments (Supplementary Fig. 1) was evaluated using the two major Aβ isoforms (Aβ40/Aβ42)[1][2][3][6][16] found in the AD-affected brain. Molecular weight (MW) distributions and morphologies of the resulting Aβ species were determined by gel electrophoresis followed by western blotting (gel/western blot) and transmission electron microscopy (TEM). Generally, under the experimental conditions employed herein, compound-free Aβ samples with and without metal ions assemble into a distribution of large aggregates that are too big to penetrate into the gel matrix, which yields very little smearing in the gel/western blots, but they can be visualized by TEM. The administration of compounds, able to interact with Aβ, inhibit the formation of high MW aggregates, and/or disassemble preformed aggregates, typically generates smaller-sized Aβ species that can enter into the gel and produce a substantial amount of streaking compared with the samples containing Aβ only.
Before experiments, Aβ40 or Aβ42 was dissolved in ammonium hydroxide (NH4OH; 1% v/v, aq). The resulting solution was aliquoted, lyophilized overnight and stored at −80 °C. A stock solution of Aβ was then prepared by dissolving lyophilized peptide in 1% NH4OH (10 μl) and diluting with ddH2O. The concentration of the solution was determined by measuring the absorbance of the solution at 280 nm (ɛ=1,450 M^–1 cm^–1 for Aβ40; ɛ=1,490 M^–1 cm^–1 for Aβ42). The peptide stock solution was diluted to a final concentration of 25 μM in Chelex-treated buffered solution containing HEPES ([…]; pH 6.6 for Cu(II) samples; pH 7.4 for metal-free and Zn(II) samples) and NaCl ([…]). For the inhibition studies, compounds (final concentration 50 μM, 1% v/v dimethyl sulfoxide (DMSO)) were added to the sample of Aβ (25 μM) in the absence and presence of a metal chloride salt (CuCl2 or ZnCl2; 25, 50, 100 or 125 μM) followed by incubation at 37 °C with constant agitation for 24 h. For the disaggregation studies, Aβ with and without a metal chloride salt was incubated for 24 h at 37 °C with constant agitation to generate preformed Aβ aggregates. The resulting samples were then treated with compounds (50 μM) and incubated with constant agitation for additional 24 h.
The Aβ samples from in vivo or in vitro experiments were analysed by gel electrophoresis followed by western blotting using an anti-Aβ antibody (6E10)[24][25][27][28][29]. Samples (10 μl) were separated on a 10–20% Tris-tricine gel (Invitrogen, Grand Island, NY, USA). […]

Cu(II)–Aβ40/Aβ42 [2] = target: T1, Cu(II)–Aβ40/Aβ42 (Homo sapiens, UniProt P05067); experiment: nESI-MS / IM–MS interaction studies with Cu(II); assay type: binding; conditions: Aβ40 18 μM, copper(II) acetate 40 μM, compound 120 μM, pH 7.5, 37 °C, 30 min
T1 construct: Aβ40 or Aβ42 was dissolved in ammonium hydroxide
Description: All IM–MS experiments were carried out on a Synapt G2 (Waters, Milford, MA)[27][28][29][58]. Samples were ionized using a nano-electrospray source operated in positive ion mode. MS instrumentation was operated at a backing pressure of 2.7 mbar and sample cone voltage of 40 V. The m/z scale was calibrated using 20 mg ml^−1 aqueous cesium iodide. For peptide-metal ligation studies, the aliquots of Aβ peptides (final concentration 18 μM) were sonicated for 5 s before pre-incubation with or without a source of Cu(II) (copper(II) acetate) at 37 °C for 10 min. […] Solution conditions were 100 mM ammonium acetate (pH 7.5) with 1% v/v DMSO. Covalent binding studies with 4 were performed by incubating aliquots of Aβ with the ligand at a ratio of 1:0, 1:5 and 1:25 in water for either 24 h or a week at 25 °C. After incubation the samples were lyophilized for storage until analysis. Immediately before analysis samples were reconstituted to 50 μM peptide concentration in 1,1,1,3,3,3-hexafluoro-2-propanol, sonicated and diluted further to 25 μM for data acquisition. Accurate mass values for ligand-bound complexes were calculated using the monoisotopic peak difference between apo and ligated states with errors reported as a function of two times the s.d. collision cross section (CCS) measurements were externally calibrated using a database of known values in helium, using values for proteins that bracket the likely CCS and ion mobility values of the unknown ions[58][59]. CCS values are the average of six replicates with errors reported as the least square product. This least square analysis combines inherent calibrant error from drift tube measurements (3%)[59]. calibration curve error, and two times the replicate s.d. error. All other conditions are consistent with previously published methods.
Aβ (100 μM) was incubated with 4 (500 μM) in 100 mM ammonium acetate, pH 7.5, without and with the addition of CuCl2 (100 μM) for 1 h at 37 °C without agitation. Before injection into the mass spectrometer, the resulting Aβ was diluted by 10-fold. ESI–MS analysis was performed using a Synapt G2-Si quadrupole time-of-flight mass spectrometer (Waters, Manchester, UK) equipped with electrospray ionization source. The capillary voltage, sampling cone voltage, and source temperature were set to 2.8 kV, 70 V, and 60 °C, respectively. The backing pressure was adjusted to 3.2 mbar.

T1 sequence (P05067 672-711): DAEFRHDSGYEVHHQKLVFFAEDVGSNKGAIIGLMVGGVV

Nc1ccc(NCc2ccccn2)cc1 [compound 1, N^1-(pyridin-2-ylmethyl)benzene-1,4-diamine]
Modulation of Cu(II)-induced Aβ aggregation (Cu(II)–Aβ40/Aβ42 [1]): redirect Cu(II)-promoted Aβ40 and Aβ42 aggregation
Interaction with Aβ in the presence of Cu(II) (Cu(II)–Aβ40/Aβ42 [2]): Cu–ligand-dependent signals corresponding to a mass 89 Da lighter than the apo Aβ40/Aβ42

COc1cc(NCc2ccccn2)cc(OC)c1 [compound 2, 3,5-dimethoxy-N-(pyridin-2-ylmethyl)aniline]
Modulation of Cu(II)-induced Aβ aggregation (Cu(II)–Aβ40/Aβ42 [1]): modulating activity at higher Cu(II) concentrations
Interaction with Aβ in the presence of Cu(II) (Cu(II)–Aβ40/Aβ42 [2]): stable ternary complexes

CN(C)c1ccc(NCc2ccc3ccccc3n2)cc1 [compound 3, N^1,N^1-dimethyl-N^4-(quinolin-2-ylmethyl)benzene-1,4-diamine]
Modulation of Cu(II)-induced Aβ aggregation (Cu(II)–Aβ40/Aβ42 [1]): modulates Aβ aggregation involved by both Cu(II) and Zn(II)
Interaction with Aβ in the presence of Cu(II) (Cu(II)–Aβ40/Aβ42 [2]): Cu–ligand-dependent signals corresponding to a mass 89 Da lighter than the apo Aβ40/Aβ42

CN(C)c1ccc(NCc2ccc[nH]2)cc1 [compound 4, N^1-((1H-pyrrol-2-yl)methyl)-N^4,N^4-dimethylbenzene-1,4-diamine]
Modulation of Cu(II)-induced Aβ aggregation (Cu(II)–Aβ40/Aβ42 [1]): redirect both Cu(II)- and Zn(II)-induced Aβ aggregation
Interaction with Aβ in the presence of Cu(II) (Cu(II)–Aβ40/Aβ42 [2]): not shown to bind to Aβ40

From publication PMC5065625, “Structure-mechanism-based engineering of chemical regulators targeting distinct pathological factors in Alzheimer's disease” (Nature Communications, 2016)
